Like-named read-outs stand apart in the source and are kept apart here.

The record followed here is patent US8541572B2.

A short description of series [1]: Area under the curve determination of plasma levels in rats (rrAUC). Format: in vivo. Particulars: rat, oral 10 mg/kg.
The test system of series [2] is TNF-α production in LPS-stimulated human whole blood. As to the kind of experiment: Inhibition of TNF-α production from human whole blood (hWBA). Format: cell-based. The following applies: LPS-stimulated human whole blood, read-out: hWBA.
[3] abbreviates: plasma 0.5-6 h post-dosing, read-out: RR AUC.
Setting [4] is: IC50 for inhibition of TNF-α production.
Where [5] appears, read: plasma 0.5-6 h, read-out: RR AUC (nM · h), rapid rat AUC (rrAUC).
The mark [6] stands for this setting: Homo sapiens, IC50 for TNF-α production.

For the compound `COc1ccc2c(c1)C(=O)N(C[C@@]1(C#Cc3ccc(C(N)C(F)(F)F)cc3)NC(=O)NC1=O)C2` (stereo partly shown) [Compound 300], in series [1] (setting [3]), the area under the curve (AUC) came to 2.6 µM·h.
With `COc1ccc2c(c1)C(=O)N(C[C@@]1(C#Cc3ccc4c(c3)CN(C)C(=O)N4)NC(=O)NC1=O)C2` [Compound 306], the AUC in series [1] (setting [3]) was 0.012 µM·h.
In the case of `COc1ccc2c(c1)C(=O)N(C[C@@]1(C#Cc3ccc(C(O)C4CCN(C)CC4)cc3)NC(=O)NC1=O)C2` (stereo partly shown) [Compound 500], the IC50 in series [2] (setting [4]) stood at 244 nM. In addition, the AUC in series [1] (setting [3]) stood at 0.011 µM·h.
On to `COc1ccc2c(c1)C(=O)N(C[C@@]1(C#Cc3ccc(-c4cc(N)n(C)n4)cc3)NC(=O)NC1=O)C2` [Compound 709], for which the AUC in series [1] (setting [3]) turned out to be 0.357 µM·h.
For the compound `COc1ccc2c(c1)C(=O)N(C[C@@]1(C#Cc3ccc4c(N)nn(C)c4c3)NC(=O)NC1=O)C2` [Compound 718], the exposure (AUC) in series [1] (setting [3]) turned out to be 0.012 µM·h.
Take `COc1ccc2c(c1)C(=O)N(C[C@@]1(C#Cc3ccc4c(C)n[nH]c4c3)NC(=O)NC1=O)C2` [Compound 723]: the IC50 in series [2] (setting [4]) worked out at 2950 nM. The AUC in series [1] (setting [3]) was determined as 7.59 µM·h.
In the case of `COc1ccc2c(c1)C(=O)N(C[C@@]1(C#Cc3ccc4c(c3)c(N)nn4C)NC(=O)NC1=O)C2` [Compound 746], the AUC in series [1] (setting [3]) was 0.082 µM·h.
On to `CON=C(c1ccc(C#C[C@]2(CN3Cc4ccc(OC)cc4C3=O)NC(=O)NC2=O)cc1)N1CCOCC1` [Compound 932], for which, in series [1] (setting [5]), the AUC came out at 3.17 µM·h.
For the compound `CCN1CCN(Cc2ccc(C#C[C@]3(CN4Cc5ccc(OC)cc5C4=O)NC(=O)NC3=O)cc2)CC1` [Compound 933], the IC50 in series [2] (IC50 for TNF-α production) worked out at 238 nM. Also, in series [1] (setting [5]), the area under the curve (AUC) was determined as 0.024 µM·h.
As for `COc1ccc2c(c1)C(=O)N(C[C@@]1(C#Cc3ccc(C(=NO)N4CCOCC4)cc3)NC(=O)NC1=O)C2` [Compound 941], the IC50 in series [2] (IC50 for TNF-α production) amounted to 100 nM. Also, the AUC in series [1] (setting [5]) was found to be 0.058 µM·h.
Take `CCN1CCN(Cc2ccc(C#C[C@]3(CN4Cc5ccc(OC)c(F)c5C4=O)NC(=O)NC3=O)cc2)CC1` [Compound 974]: the IC50 in series [2] (setting [4]) amounted to 125 nM. Further, the AUC in series [1] (setting [3]) was 0.034 µM·h.
Take `COc1ccc2c(c1F)C(=O)N(C[C@@]1(C#Cc3ccc(C4(C)NC(=O)NC4=O)c(F)c3)NC(=O)NC1=O)C2` (stereo partly shown) [Compound 1302]: the exposure (AUC) in series [1] (setting [3]) was determined as 5.64 µM·h.
Consider `COc1ccc2c(c1F)C(=O)N(C[C@@]1(C#Cc3cncc(F)c3)NC(=O)NC1=O)C2` [Compound 1310], for which, in series [1] (setting [3]), the AUC came out at 1.77 µM·h.
On to `COc1ccc2c(c1F)C(=O)N(C[C@@]1(C#Cc3ccc(C4(C(N)=O)CCN(C)CC4)cc3)NC(=O)NC1=O)C2` [Compound 1314], for which the IC50 in series [2] (setting [4]) was found to be 152 nM. In series [1] (setting [3]), the AUC worked out at 0.016 µM·h.
For the compound `COc1ccc2c(c1)C(=O)N(C[C@@]1(C#Cc3nc(N4C[C@H](O)CC4=O)ccc3OC)NC(=O)NC1=O)C2` [Compound 1503], the AUC in series [1] (setting [3]) was found to be 0.035 µM·h.
As to `COc1ccc2c(c1)C(=O)N(C[C@@]1(C#Cc3ccc(-c4noc(C(C)C)n4)cc3)NC(=O)NC1=O)C2` [Compound 1505], the AUC in series [1] (setting [3]) amounted to 0.243 µM·h.
Turning to `COc1ccc2c(c1F)C(=O)N(C[C@@]1(C#Cc3ccc(C4(O)CCNCC4)cc3)NC(=O)NC1=O)C2` [Compound 1701], the AUC in series [1] (setting [3]) was determined as 0.041 µM·h.
Consider `COc1ccc2c(c1)C(=O)N(C[C@@]1(C#Cc3ccc(N4C(=O)CCC4C(=O)NC4CC4)cc3)NC(=O)NC1=O)C2` (stereo partly shown) [Compound 1902], for which the AUC in series [1] (setting [3]) came out at 0.025 µM·h.
As to `COc1ccc2c(c1F)C(=O)N(C[C@@]1(C#Cc3ccc(N4C(=O)CCC4C(=O)NC4CC4)cc3)NC(=O)NC1=O)C2` (stereo partly shown) [Compound 1904], the IC50 in series [2] (setting [4]) was determined as 278 nM. The exposure (AUC) in series [1] (setting [3]) was found to be 0.213 µM·h.
For the compound `COc1ccc2c(c1F)C(=O)N(C[C@@]1(C#Cc3ccc4c(c3)CCC43NC(=O)NC3=O)NC(=O)NC1=O)C2` (stereo partly shown) [Compound 2214], the IC50 in series [2] (setting [4]) was 186 nM. Further, the AUC in series [1] (setting [3]) was 3.46 µM·h.
With `COc1ccc2c(c1)C(=O)N(C[C@@]1(C#Cc3ccc(-c4cc[nH]n4)nc3)NC(=O)NC1=O)C2` [Compound 2235], in series [2] (setting [4]), the IC50 came to 231 nM. Further, the AUC in series [1] (setting [3]) was found to be 0.23 µM·h.
Take `COc1ccc2c(c1)C(=O)N(C[C@@]1(C#Cc3ccc(C(=NO)c4ccc(F)cc4)cc3)NC(=O)NC1=O)C2` [Compound 2245]: in series [2] (Homo sapiens, IC50 for inhibition of TNF-α production), the IC50 came to 954 nM. The AUC in series [1] (setting [3]) came to 1.07 µM·h.
`COc1ccc2c(c1Cl)C(=O)N(CC1(C#Cc3cccnc3)NC(=O)NC1=O)C2` (stereo not shown) [Compound 2247]: in series [2] (setting [4]), the IC50 stood at 1000 nM. For the same compound, in series [1] (setting [3]), the AUC was 0.38 µM·h.
For the compound `COc1ccc2c(c1)C(=O)N(C[C@@]1(C#Cc3cc(Cl)cnc3N)NC(=O)NC1=O)C2` [Compound 2248], the AUC in series [1] (setting [3]) was 4.04 µM·h.
Turning to `COc1ccc2c(c1)C(=O)N(C[C@@]1(C#Cc3ccc(F)c(C(O)(O)C(F)(F)F)c3)NC(=O)NC1=O)C2` [Compound 2251], the AUC in series [1] (setting [5]) turned out to be 0.171 µM·h.
In the case of `COc1ccc2c(c1)C(=O)N(C[C@@]1(C#Cc3ccc([C@H]4CCC(=O)N4)cc3)NC(=O)NC1=O)C2` [Compound 2259], the AUC in series [1] (setting [5]) came out at 0.126 µM·h.
The same measure, in the same setting: with `COc1ccc2c(c1)C(=O)N(C[C@@]1(C#Cc3ccc(-c4cnn(C)c4)nc3)NC(=O)NC1=O)C2` [Compound 2269] the figure was 0.924 µM·h.
For the compound `COc1ccc2c(c1)C(=O)N(C[C@@]1(C#Cc3ccc(C(=NO)N4CCNC[C@@H]4C)cc3)NC(=O)NC1=O)C2` [Compound 2293], the IC50 in series [2] (IC50 for TNF-α production) was found to be 84 nM.
In the case of `COc1ccc2c(c1)C(=O)N(C[C@@]1(C#Cc3ccc(C(=NO)N4[C@H](C)CNC[C@@H]4C)cc3)NC(=O)NC1=O)C2` [Compound 2294], the IC50 in series [2] (IC50 for TNF-α production) was 327 nM.
Turning to `COc1ccc2c(c1)C(=O)N(C[C@@]1(C#Cc3ccc(N4CCCCC4=O)cc3)NC(=O)NC1=O)C2` [Compound 2295], in series [2] (setting [6]), the IC50 came to 1390 nM.
For `COc1ccc2c(c1)C(=O)N(C[C@@]1(C#Cc3ccc(-c4cn[nH]c4N)cc3)NC(=O)NC1=O)C2` [Compound 2296], in series [2] (setting [6]), the IC50 came to 236 nM.
With `COc1ccc2c(c1)C(=O)N(CC1(C#Cc3cnc(N4CCC5(CC4)NC(=O)NC5=O)nc3N)NC(=O)NC1=O)C2` (stereo not shown) [Compound 2310], in series [2] (IC50 for TNF-α production), the IC50 amounted to 557 nM.
With `COc1ccc2c(c1)C(=O)N(C[C@@]1(C#Cc3ccc(N4CCC5(CC4)NC(=O)NC5=O)nc3)NC(=O)NC1=O)C2` [Compound 2311], the IC50 in series [2] (setting [6]) was 348 nM.
Consider `COc1ccc2c(c1)C(=O)N(C[C@@]1(C#Cc3ccc4c(c3)CC[C@]43NC(=O)NC3=O)NC(=O)NC1=O)C2` [Compound 2313], for which the AUC in series [1] (setting [5]) stood at 0.53 µM·h.
`COc1ccc2c(c1)C(=O)N(C[C@@]1(C#Cc3ccc4c(c3)CC[C@@]43NC(=O)NC3=O)NC(=O)NC1=O)C2` [Compound 2314]: the AUC in series [1] (setting [5]) was determined as 0.218 µM·h.
With `CCN1CCN(C(=NO)c2ccc(C#C[C@]3(CN4CCc5cc(OC)ccc5C4=O)NC(=O)NC3=O)cc2)CC1` [Compound 2316], in series [2] (IC50 for TNF-α production), the IC50 amounted to 335 nM.
With `COc1ccc2c(c1)CCN(C[C@@]1(C#Cc3ccc(C(=NO)N4CCCN(C)CC4)cc3)NC(=O)NC1=O)C2=O` [Compound 2317], the IC50 in series [2] (IC50 for TNF-α production) worked out at 639 nM.
As for `COc1ccc2c(c1)C(=O)N(C[C@@]1(C#Cc3cccnc3)NC(=O)NC1=O)CC2` [Compound 2318], the IC50 in series [2] (IC50 for TNF-α production) came out at 10000 nM.
`COc1ccc2c(c1)CCN(C[C@@]1(C#Cc3ccc(C(=NO)N4CCOCC4)cc3)NC(=O)NC1=O)C2=O` [Compound 2319]: the IC50 in series [2] (IC50 for TNF-α production) came out at 1060 nM.
Same read-out and setting: with `COc1ccc2c(c1)CCN(C[C@@]1(C#Cc3ccc(C(=NO)N4CCN(C)CC4)cc3)NC(=O)NC1=O)C2=O` [Compound 2320] the figure was 261 nM.
On to `COc1ccc2c(c1)CCN(C[C@@]1(C#Cc3ccc4c(c3)CCCC43NC(=O)NC3=O)NC(=O)NC1=O)C2=O` (stereo partly shown) [Compound 2321], for which, in series [2] (IC50 for TNF-α production), the IC50 turned out to be 1100 nM.

As usually defined, the AUC is concentration integrated over time.
